Molecular target: T1, human Edg-1 receptor (Homo sapiens, UniProt P21453)
T1 construct: expressed in transfected cells; host or cells: Flp-In-CHO cells, stably transfected; membrane preparation
Assay: GTP-γ-S assay using human Edg-1 receptors (scintillation proximity assay, CHO Flp-In cell membrane preparation)
Assay type: biochemical
Conditions: test compound at 10 μM; 10 μM S1P regarded as 100% activation; background-corrected; triplicate; read-out: % Activation (Edg-1 receptor activation in percent of the activation by 10 μM S1P)
Text: A) GTP-γ-S assay using human Edg-1 receptors
In order to determine the Edg-1 receptor activation by the compounds of the invention, a GTP-γ-S (guanosine 5′-[thio]triphosphate) assay for G-protein coupled receptor binding based on the scintillation proximity assay principle was used, employing a cell membrane preparation from a CHO Flp-In cell line which constitutively overexpresses the human Edg-1 receptor.
(a) Cell line generation The Flp-In™ expression system (Invitrogen, cat. no. K6010-01) allows the generation of stable mammalian cell lines into which the gene of interest has been integrated through homologous recombination at a specific genomic location called Flp Recombination Target (FRT) site by means of a Flp recombinase encoded by the pOG44 expression plasmid. The integration of the pcDNA5/FRT expression construct into the Flp-In host cell line genome results in the transcription of the gene of interest. The stably transfected cells become hygromycin-resistant.
One day prior to transfection, 200 000 Flp-In-CHO cells were seeded in Ham F-12 medium (Invitrogen, cat. no. 31765) supplemented with 10% fetal calf serum (FCS; Perbio Science, cat. no. SH30068.03) in a 6-well plate and incubated at 37° C./5% CO2 overnight. Using the FuGENE® 6 transfection reagent (Roche, cat. no. 11988387001), cells were cotransfected with the Flp recombinase expression plasmid pOG44 and a modified plasmid additionally containing the edg-1 gene (accession no. NM_001400) termed as pcDNA5-FRT-TO_nFLAG_DEST-EDG-1 with a 9:1 ratio. To obtain the modified pcDNA5-FRT-TO_nFLAG_DEST plasmid, the Invitrogen plasmid pcDNA5/FRT/TO (Invitrogen, cat. no. V6520-20) was adapted to the Gateway® (Invitrogen) cloning system by inserting a Gateway cassette containing attR recombination sites flanking a ccdB gene and a chloramphenicol-resistance gene (Gateway conversion system, Invitrogen, cat. no. 11828-029). In addition a FLAG tag epitope was added before the 5′ att recombination site to allow recombinant expression of N-terminally FLAG-tagged proteins.
For the transfection of one well, 1.08 μg of pOG44 and 0.12 μg of pcDNA5-FRT-TO_nFLAG_DEST-EDG-1 were mixed to 100 μl of serum-free Ham F-12 medium containing 6 μl of FuGENE® 6 transfection reagent. After 20 min of incubation, the transfection reagent/DNA complex was distributed dropwise on the cells. The cells were incubated for 24 h at 37° C. Then the cells from 3 wells were transferred to a T75 flask (Greiner Cellstar®, cat. no. 658175) containing Ham F-12 medium supplemented with 10% of FCS but without antibiotic and were incubated another 24 h. 48 h after transfection, the medium was replaced by selection medium (Ham F-12 supplemented with 10% of FCS and 300 μg/ml of hygromycin B (Invitrogen, cat. no. 10687-010)). The medium was exchanged every 2 to 3 days until a resistant population of cells had grown. […] After 2 weeks of selection, the cells were transferred into T175 flasks (Greiner Cellstar®, cat. no. 660175) and cultivated for batch production. Cells were harvested from the culture flasks by short treatment (2 to 5 min) with Accutase (PAA, cat. no. L11-007), resuspended in selection medium (see above) and centrifuged at 200×g for 5 min. Cells were resuspended in a mixture of 90% of FCS and 10% of dimethylsulfoxide and stored frozen in liquid nitrogen.
A membrane preparation was obtained by standard methods from the afore-described CHO Flp-ln cell line constitutively overexpressing the human Edg-1 receptor. Briefly, the cryopreserved cells were taken in culture and grown until confluency in T175 cell culture flasks (Becton Dickinson, cat. no. 35 5001). […]

T1 sequence (P21453 whole entry): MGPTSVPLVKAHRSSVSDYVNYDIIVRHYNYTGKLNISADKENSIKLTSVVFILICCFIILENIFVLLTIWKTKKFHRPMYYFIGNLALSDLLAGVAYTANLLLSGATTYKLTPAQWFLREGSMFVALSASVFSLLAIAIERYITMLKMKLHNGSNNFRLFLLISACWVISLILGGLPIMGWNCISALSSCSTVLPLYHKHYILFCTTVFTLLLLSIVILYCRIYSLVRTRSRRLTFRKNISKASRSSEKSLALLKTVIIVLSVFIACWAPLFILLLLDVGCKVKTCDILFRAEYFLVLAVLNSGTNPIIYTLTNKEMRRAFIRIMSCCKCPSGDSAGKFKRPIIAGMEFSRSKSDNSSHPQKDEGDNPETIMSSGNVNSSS

SMILES	activation at 10 µM
Cc1cc(-c2nc3cnc(Oc4cccc(F)c4)nc3o2)cc(C(C)C)c1O [Example 12, 4-[5-(3-fluorophenoxy)-oxazolo[5,4-d]pyrimidin-2-yl]-2-isopropyl-6-methyl-phenol]	112%
COc1c(C)cc(-c2nc3cnc(Oc4ccccc4)nc3o2)cc1C [Example 8, 2-(4-methoxy-3,5-dimethyl-phenyl)-5-phenoxy-oxazolo[5,4-d]pyrimidine]	94%
COc1c(C)cc(-c2nc3cnc(Oc4cccnc4)nc3o2)cc1C [Example 9, 2-(4-methoxy-3,5-dimethyl-phenyl)-5-(pyridin-3-yloxy)-oxazolo[5,4-d]pyrimidine]	87%
COc1c(C)cc(-c2nc3cnc(Oc4ccccc4F)nc3o2)cc1C [Example 1, 5-(2-Fluoro-phenoxy)-2-(4-methoxy-3,5-dimethyl-phenyl)-oxazolo[5,4-d]pyrimidine]	102%
COc1ccc(-c2nc3cnc(Oc4ccccc4F)nc3o2)cc1C [Example 5, 5-(2-fluoro-phenoxy)-2-(4-methoxy-3-methyl-phenyl)-oxazolo[5,4-d]pyrimidine]	42%
Cc1cc(-c2nc3cnc(Oc4ccccc4F)nc3o2)ccc1O [Example 7, 4-[5-(2-fluoro-phenoxy)-oxazolo[5,4-d]pyrimidin-2-yl]-2-methyl-phenol]	115%
Oc1ccc(-c2nc3cnc(Oc4ccccc4F)nc3o2)cc1 [Example 4, 4-[5-(2-fluoro-phenoxy)-oxazolo[5,4-d]pyrimidin-2-yl]-phenol]	83%
Cc1cc(-c2nc3cnc(Oc4ccccc4F)nc3o2)ccc1S(C)(=O)=O [Example 13, 5-(2-fluorophenoxy)-2-(4-methanesulfonyl-3-methylphenyl)-oxazolo[5,4-d]pyrimidine]	120%
Oc1ccc(-c2nc3cnc(Oc4ccccc4F)nc3o2)cc1C(F)(F)F [Example 10, 4-[5-(2-fluoro-phenoxy)-oxazolo[5,4-d]pyrimidin-2-yl]-2-trifluoromethyl-phenol]	107%
COc1ccc(-c2nc3cnc(Oc4ccccc4F)nc3o2)cc1C(F)(F)F [Example 6, 5-(2-fluoro-phenoxy)-2-(4-methoxy-3-trifluoromethyl-phenyl)-oxazolo[5,4-d]pyrimidine]	87%
Cc1cc(S(C)(=O)=O)ccc1-c1nc2cnc(Oc3ccccc3F)nc2o1 [Example 14, 5-(2-fluorophenoxy)-2-(4-methanesulfonyl-2-methylphenyl)-oxazolo[5,4-d]pyrimidine]	69%
Cc1cc(-c2nc3cnc(Oc4cccnc4)nc3o2)cc(C)c1O [Example 11, 2,6-dimethyl-4-[5-(pyridin-3-yloxy)-oxazolo[5,4-d]pyrimidin-2-yl]-phenol]	103%
Cc1cc(-c2nc3cnc(Oc4ccccc4F)nc3o2)cc(C)c1O [Example 2, 4-[5-(2-Fluoro-phenoxy)-oxazolo[5,4-d]pyrimidin-2-yl]-2,6-dimethyl-phenol]	115%
COc1cccc(-c2nc3cnc(Oc4ccccc4F)nc3o2)c1 [Example 3, 5-(2-fluoro-phenoxy)-2-(3-methoxy-phenyl)-oxazolo[5,4-d]pyrimidine]	95%

From patent publication US9040544B2, “2,5-substituted oxazolopyrimidine derivatives” (Sanofi, priority 2010, dated 2015)
